Laboratory results: patent US10653691B2, “Method of promoting remyelination” (Case Western Reserve University, priority 2013, dated 2020)

Columns and labels:
ERK1/2 = assay: Western blot of ERK1/2 phosphorylation in OPCs; assay type: cell-based, mouse; settings: OPCs treated for 1 h
Description: EpiSC-derived OPCs were seeded into poly-Lornithine/laminin coated six-well plates and allowed to attach for 2 h in DMEM/F12 without additional factors. Cells were treated with indicated inhibitors or DMSO for 1 h-SCH772984 (ChemieTek, […]), SB590885 (Tocris, 10 nM), LY294002 (Tocris, 10 μM), and PD0325901 (Stemgent, 1 μM). Cells were then stimulated with drug or FGF2 (R&DSystems; 20 ng ml^−1) for 1 h and then lysed in 200 μL RIPA buffer (0.15 M NaCl, 0.05M Tris, pH=8.0, 1 mM EDTA, 1% Triton X-100, 0.1% SDS, 10% glycerol, HALT protease and phosphatase inhibitor (Thermo Fisher) added just before use) and incubated on ice for 20 min. Lysates were centrifuged at 4° C. and supernatant collected. Protein concentrations were determined by Pierce BCA protein assay kit (Thermo Fisher). Equal amounts of protein were resolved in a reduced manner on NuPAGE 4-12% Bis-Tris gels (Life Technologies) and transferred onto PVDF membranes (Life Technologies). Blots were blocked in either 5% BSA (phosphoprotein) or 5% milk (non phosphoprotein). Primary antibodies were all from the same vendor (Cell Signaling) and included phospho-Erk1/2 (4370S, clone D13.14.4E; 1:2,000), ERK1/2 (9107S, clone 3A7; 1:2,000), phospho-glucocorticoid receptor (4161S; 1:1,000), and glucocorticoid receptor (12041, clone D6H2L; 1:1,000) followed by incubation with HRP-conjugated secondary antibodies and chemiluminescent enhancement by West Pico substrate (Thermo Fisher).

LPC lesion mouse model = assay: LPC-induced focal demyelination of the spinal cord and drug treatment; assay type: in vivo; settings: for MBP staining in the lesions: 8 and 12 d.p.l.; for number of newly generated CC1+ oligodendrocytes in the lesion core: 8 d.p.l., miconazole 10 or 40 mg per kg, clobetasol 2 mg per kg, vs vehicle; for extent of remyelination (electron micrographs, toluidine blue): lesions of treated mice
Description: Focal demyelination in the spinal cord was induced by the injection of 1% LPC solution. Ten- to 12-week-old C57BL/6 female mice were anaesthetized using isoflurane and a T10 laminectomy was performed. One microlitre of 1% LPC was infused into the dorsal column at a rate of […]. The animals were euthanized either at day 8 or day 12 after the laminectomy (n=6-9 per group). Animals that were euthanized at day 8 received vehicle or drug daily by intraperitoneal injection between days 3 and 7. Animals used in the day 12 experiments received vehicle or drug daily by intraperitoneal injection between days 4 and 11. Drugs were dissolved in DMSO and then diluted with sterile saline for injection. Mice were deeply anaesthetized using ketamine/xylazine rodent cocktail and then euthanized by transcardial perfusion with 4% PFA for histological analysis or 4% PFA, 2% gluteraldehyde, and 0.1M sodium cacodylate for electron microscopy. PFA fixed tissue was equilibrated in 30% sucrose, embedded in OCT, and cryosectioned at 20 μm thickness and processed for CC1 and MBP immunohistochemistry. ImageJ was used to measure area of the lesion and CC1^+ cells within the lesion were scored manually. For CC1 scoring, sections were taken from the centre of each lesion to control for lesion variability.
Samples were processed as previously described.

[1] = test system: hESC- and hiPSC-derived human OPCs; assay: Screening of human OPCs (MBP staining, HCA); assay type: cell-based; settings: 21 days; miconazole 1 μM, clobetasol 5 μM; vs DMSO
Description: Human OPCs were generated from skin fibroblast-derived human iPSC line (CWRU43, Tesar laboratory) and hESC lines H7 (NIH Human Embryonic StemCell RegistryWA07; NIH approval number NIHhESC-10-0061) and H9 (NIH Human Embryonic Stem Cell Registry WA09; NIH approval number NIHhESC-10-0062) as previously described. iPSC- and hESC-derived OPCs were characterized by Sox10 (R&D Systems, AF2864; 1:100) staining, and then seeded in 96-well plates at 40,000 cells per well for drug testing. […] Plates were fixed and stained with MBP (Abcam, ab7349; 1:100) then imaged on the Operetta system. We analysed results with slight modification to HCA Acapella scripts used for mouse oligodendrocytes.

MOG35-55 EAE mouse model = assay: MOG35-55 chronic progressive EAE model; settings: for areas of myelin disruption in the white matter (luxol fast blue, MBP immunohistochemistry): cervical spinal cords; for functional improvement (disease score): daily i.p. for 10 days from peak of disease; for MBP expression and extent of demyelination in the spinal cord: histology after treatment, vs vehicle; for average clinical scores and cumulative clinical scores: larger treatment cohort, n=12 to 18 mice per group; for immune cell infiltration into the lesion areas (IBA1 staining): spinal cords after treatment
Description: Immunohistochemistry was performed as previously described. In short, tissue sections or whole slices were washed three times in PBS, blocked in PBS containing Triton X-100 (0.1%) and normal donkey serum (NDS, 2% for sections and 10% for cerebellar slices) and incubated with primary antibody overnight. For MBP immunohistochemistry, the primary antibody solution consisted of 2% NDS, 2% bovine serum albumin, and 0.1% saponin. For all other antibodies, the primary antibody solution consisted of 2% NDS and 0.1% Triton X-100. Primary antibodies used included rat anti-MBP (Abcam, ab7349; 1:100), mouse anti-APC CC1 clone (Millipore, MABC200; 1:500), and rabbit anti-IBA1 (Wako Chemicals, 019-19741; 1:1,000). The tissue was then washed in PBS and incubated in secondary antibodies for […]. Secondary detection was performed with Alexa Fluor-conjugated secondary antibodies (1:500) for 1 h. Luxol fast blue staining was performed as previously described.
Samples were processed as previously described. In short, samples were osmicated, stained en bloc with uranyl acetate, and embedded in EMbed 812, an Epon-812 substitute (EMS). Sections (1 μm) were cut and stained with toluidine blue and visualized on a light microscope (Leica DM5500B). Additional thin sections were cut, carbon coated and imaged either on a JEOL JEM-1200-EX electron microscope or a T12 electron microscope (FEI).
EAE was induced by immunizing 10-week-old C57BL/6 female mice with […] injection of […] complete Freund's adjuvant emulsion (Hooke Laboratories). One hour after immunization, mice were given 100 ng of pertussis toxin by 100 μl intraperitoneal injection. A second dose of pertussis toxin was administered the next day. EAE onset was monitored daily and scored using a clinical scale where 0 represented no abnormality; 1, limp tail; 2, limp tail and hind limb weakness; 3, hind limb paralysis; 4, hind limb paralysis and forelimb weakness; and 5, moribund. […] Once mice reached peak of disease ˜day 15; clinical score=3) they were randomized into treatment groups, and drug or vehicle (DMSO in saline) was administered intraperitoneally daily for 10 days (n=12-16 mice per group). […] Experimenters were blinded to the identity of the treatments and animals were scored daily. Cumulative disease scores for each animal were calculated during the treatment period, and a two-tailed t-test compared drug—with vehicle-treated groups. The extent of recovery for each animal was calculated as the difference between the peak disease score and the score at the end of each experiment, and a two-tailed t-test was used to compare each treatment with vehicle. External validation of MOG35-55 EAE experiments (n=12 mice per group) was performed at Hooke Laboratories with experimenters blinded to the identity of the substances.

[2] = miconazole 10 mg/kg, clobetasol 2 mg/kg, benztropine 10 mg/kg

Structure (SMILES)	induction of ERK1/2 phosphorylation in OPCs (ERK1/2)	MBP staining in the lesions (LPC lesion mouse model)	number of newly generated CC1+ oligodendrocytes in the lesion core (LPC lesion mouse model)	extent of remyelination (electron micrographs, toluidine blue) (LPC lesion mouse model)	human OPC differentiation [1]	areas of myelin disruption in the white matter (luxol fast blue, MBP immunohistochemistry) (MOG35-55 EAE mouse model)	functional improvement (disease score) (MOG35-55 EAE mouse model; [2])	MBP expression and extent of demyelination in the spinal cord (MOG35-55 EAE mouse model)	average clinical scores and cumulative clinical scores (MOG35-55 EAE mouse model)	immune cell infiltration into the lesion areas (IBA1 staining) (MOG35-55 EAE mouse model)	myelin thickness relative to axon diameter (g ratio) (LPC lesion mouse model; 12 d.p.l., compared with intact myelin)	overt toxicity to the animals (MOG35-55 EAE mouse model; miconazole 10 mg/kg, clobetasol 2 mg/kg, benztropine 10 mg/kg, daily i.p. 10 days)
Clc1ccc(COC(Cn2ccnc2)c2ccc(Cl)cc2Cl)c(Cl)c1 (stereo not shown) [miconazole]	strong and sustained phosphorylation	extensive MBP staining	significant increase in the number of newly generated CC1^+ oligodendrocytes	striking increase in the extent of remyelination	enhanced human OPC differentiation, with miconazole exhibiting the most reproducible and potent effects	decrease in areas of myelin disruption in the white matter	marked improvement in function	restoration of MBP expression and a reduction in the extent of demyelination in the spinal cord	significant reduction of disease and functional improvement	small reduction of immune cell infiltration into the lesion areas		
C[C@H]1C[C@H]2[C@@H]3CCC4=CC(=O)C=C[C@]4(C)[C@@]3(F)[C@@H](O)C[C@]2(C)[C@@]1(O)C(=O)CCl [clobetasol]	did not induce ERK1/2 phosphorylation	extensive MBP staining	significant increase in the number of newly generated CC1^+ oligodendrocytes	striking increase in the extent of remyelination	enhanced human OPC differentiation	decrease in areas of myelin disruption in the white matter	marked improvement in function	restoration of MBP expression and a reduction in the extent of demyelination in the spinal cord	significant reduction of disease and functional improvement	small reduction of immune cell infiltration into the lesion areas, especially in clobetasol-treated animals, but not an abrogation	thinner than intact myelin	no drugs showed any overt evidence of toxicity
